Measurements published in the supplement of paper PMC10307832.

Key:
Test in all cases: relative viability (nuclei count vs DMSO), 5 days (fraction); higher = more cells survive
NCI-H1666 = system: NCI-H1666
Method in brief: (§1)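 Lung cancer cell lines, seeded in 1536-well plates, were treated the following day by pin tool with a single drug or with five library-drug doses (not always all listed) in √10 steps on top of a fixed anchor-drug dose. Cells were fixed and nuclei stained in one step after 5 days, and nuclei were counted. Relative viability is the nuclei count for treated wells divided by that for vehicle wells, reported as medians of duplicate plates.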

ABC-1 = system: ABC-1
Method in brief: as §1

NCI-H2126 = system: NCI-H2126
Method in brief: as §1

SK-LU-1 = system: SK-LU-1
Method in brief: as §1

LU99A = system: LU99A
Method in brief: as §1

RERF-LC-KJ = system: RERF-LC-KJ
Method in brief: as §1

NCI-H1755 = system: NCI-H1755
Method in brief: as §1

NCI-H322M = system: NCI-H322M
Method in brief: as §1

LXF-289 = system: LXF-289
Method in brief: as §1

NCI-H1792 = system: NCI-H1792
Method in brief: as §1

NCI-H1395 = system: NCI-H1395
Method in brief: as §1

CAL-12T = system: CAL-12T
Method in brief: as §1

HCC-44 = system: HCC-44
Method in brief: as §1

NCI-H1793 = system: NCI-H1793
Method in brief: as §1

NCI-H520 = system: NCI-H520
Method in brief: as §1

NCI-H1944 = system: NCI-H1944
Method in brief: as §1

NCI-H358 = system: NCI-H358
Method in brief: as §1

NCI-H3122 = system: NCI-H3122
Method in brief: as §1

HCC-827 = system: HCC-827
Method in brief: as §1

NCI-H2347 = system: NCI-H2347
Method in brief: as §1

## CCNC(=O)c1noc(-c2cc(C(C)C)c(O)cc2O)c1-c1ccc(CN2CCOCC2)cc1 [Luminespib] + CS(=O)(=O)CCNCc1ccc(-c2ccc3ncnc(Nc4ccc(OCc5cccc(F)c5)c(Cl)c4)c3c2)o1 [Lapatinib] (partner 2 µM)
NCI-H1666; first compound 0.002 µM
  relative viability: 0.717
NCI-H1666; first compound 0.006325 µM
  relative viability: 0.709
NCI-H1666; first compound 0.02 µM
  relative viability: 0.585
NCI-H1666; first compound 0.06325 µM
  relative viability: 0.718
NCI-H1666; first compound 0.2 µM
  relative viability: 0.533
ABC-1; first compound 0.002 µM
  relative viability: 1.33
ABC-1; first compound 0.006325 µM
  relative viability: 0.964
ABC-1; first compound 0.02 µM
  relative viability: 0.945
ABC-1; first compound 0.06325 µM
  relative viability: 1.14
ABC-1; first compound 0.2 µM
  relative viability: 0.517
NCI-H2126; first compound 0.002 µM
  relative viability: 0.798
NCI-H2126; first compound 0.006325 µM
  relative viability: 0.776
NCI-H2126; first compound 0.02 µM
  relative viability: 0.582
NCI-H2126; first compound 0.06325 µM
  relative viability: 0.647
NCI-H2126; first compound 0.2 µM
  relative viability: 0.526
SK-LU-1; first compound 0.002 µM
  relative viability: 0.905
SK-LU-1; first compound 0.006325 µM
  relative viability: 0.469
SK-LU-1; first compound 0.02 µM
  relative viability: 0.424
SK-LU-1; first compound 0.06325 µM
  relative viability: 0.164
SK-LU-1; first compound 0.2 µM
  relative viability: 0.133
LU99A; first compound 0.002 µM
  relative viability: 1.11
LU99A; first compound 0.006325 µM
  relative viability: 0.939
LU99A; first compound 0.02 µM
  relative viability: 0.518
LU99A; first compound 0.06325 µM
  relative viability: 0.127
LU99A; first compound 0.2 µM
  relative viability: 0.11
RERF-LC-KJ; first compound 0.002 µM
  relative viability: 0.825
RERF-LC-KJ; first compound 0.006325 µM
  relative viability: 0.812
RERF-LC-KJ; first compound 0.02 µM
  relative viability: 0.621
RERF-LC-KJ; first compound 0.06325 µM
  relative viability: 0.726
RERF-LC-KJ; first compound 0.2 µM
  relative viability: 0.294
NCI-H1755; first compound 0.002 µM
  relative viability: 1.09
NCI-H1755; first compound 0.006325 µM
  relative viability: 0.97
NCI-H1755; first compound 0.02 µM
  relative viability: 1.07
NCI-H1755; first compound 0.06325 µM
  relative viability: 0.502
NCI-H1755; first compound 0.2 µM
  relative viability: 0.176
NCI-H322M; first compound 0.002 µM
  relative viability: 0.556
NCI-H322M; first compound 0.006325 µM
  relative viability: 0.573
NCI-H322M; first compound 0.02 µM
  relative viability: 0.503
NCI-H322M; first compound 0.06325 µM
  relative viability: 0.708
NCI-H322M; first compound 0.2 µM
  relative viability: 0.373
LXF-289; first compound 0.002 µM
  relative viability: 0.905
LXF-289; first compound 0.006325 µM
  relative viability: 0.877
LXF-289; first compound 0.02 µM
  relative viability: 1.02
LXF-289; first compound 0.06325 µM
  relative viability: 0.554
LXF-289; first compound 0.2 µM
  relative viability: 0.115
NCI-H1792; first compound 0.002 µM
  relative viability: 0.855
NCI-H1792; first compound 0.006325 µM
  relative viability: 0.778
NCI-H1792; first compound 0.02 µM
  relative viability: 0.717
NCI-H1792; first compound 0.06325 µM
  relative viability: 0.474
NCI-H1792; first compound 0.2 µM
  relative viability: 0.587
NCI-H1395; first compound 0.002 µM
  relative viability: 1.04
NCI-H1395; first compound 0.006325 µM
  relative viability: 0.996
NCI-H1395; first compound 0.02 µM
  relative viability: 0.645
NCI-H1395; first compound 0.06325 µM
  relative viability: 0.336
NCI-H1395; first compound 0.2 µM
  relative viability: 0.347
CAL-12T; first compound 0.002 µM
  relative viability: 0.596
CAL-12T; first compound 0.006325 µM
  relative viability: 0.644
CAL-12T; first compound 0.02 µM
  relative viability: 0.309
CAL-12T; first compound 0.06325 µM
  relative viability: 0.183
CAL-12T; first compound 0.2 µM
  relative viability: 0.158
HCC-44; first compound 0.002 µM
  relative viability: 0.975
HCC-44; first compound 0.006325 µM
  relative viability: 1.08
HCC-44; first compound 0.02 µM
  relative viability: 1.18
HCC-44; first compound 0.06325 µM
  relative viability: 0.161
HCC-44; first compound 0.2 µM
  relative viability: 0.159
NCI-H1793; first compound 0.002 µM
  relative viability: 0.697
NCI-H1793; first compound 0.006325 µM
  relative viability: 0.832
NCI-H1793; first compound 0.02 µM
  relative viability: 0.223
NCI-H1793; first compound 0.06325 µM
  relative viability: 0.167
NCI-H1793; first compound 0.2 µM
  relative viability: 0.177
NCI-H520; first compound 0.002 µM
  relative viability: 0.848
NCI-H520; first compound 0.006325 µM
  relative viability: 0.792
NCI-H520; first compound 0.02 µM
  relative viability: 0.353
NCI-H520; first compound 0.06325 µM
  relative viability: 0.11
NCI-H520; first compound 0.2 µM
  relative viability: 0.138
NCI-H1944; first compound 0.002 µM
  relative viability: 0.869
NCI-H1944; first compound 0.006325 µM
  relative viability: 0.724
NCI-H1944; first compound 0.02 µM
  relative viability: 0.445
NCI-H1944; first compound 0.06325 µM
  relative viability: 0.41
NCI-H1944; first compound 0.2 µM
  relative viability: 0.407
NCI-H358; first compound 0.002 µM
  relative viability: 0.503
NCI-H358; first compound 0.006325 µM
  relative viability: 0.446
NCI-H358; first compound 0.02 µM
  relative viability: 0.354
NCI-H358; first compound 0.06325 µM
  relative viability: 0.132
NCI-H358; first compound 0.2 µM
  relative viability: 0.14
NCI-H3122; first compound 0.002 µM
  relative viability: 1.09
NCI-H3122; first compound 0.006325 µM
  relative viability: 0.951
NCI-H3122; first compound 0.02 µM
  relative viability: 1.02
NCI-H3122; first compound 0.06325 µM
  relative viability: 0.24
NCI-H3122; first compound 0.2 µM
  relative viability: 0.168
HCC-827; first compound 0.002 µM
  relative viability: 0.184
HCC-827; first compound 0.006325 µM
  relative viability: 0.184
HCC-827; first compound 0.02 µM
  relative viability: 0.172
HCC-827; first compound 0.06325 µM
  relative viability: 0.235
HCC-827; first compound 0.2 µM
  relative viability: 0.185
NCI-H2347; first compound 0.002 µM
  relative viability: 0.941
NCI-H2347; first compound 0.02 µM
  relative viability: 0.876
NCI-H2347; first compound 0.06325 µM
  relative viability: 0.758
NCI-H2347; first compound 0.2 µM
  relative viability: 0.88
